Holding throughout (experiment): inhibition of tumour cell growth, NCI panel, 48 h
Assay [1] relates to OVCAR-4 ovarian.
The test system of assay [2] is A549 NSCLC.
Assay [3] concerns NCI-H23 lung.
In assay [4] the test system is HOP-62 NSCLC.
Assay [5] relates to HS 578T breast.
Assay [6] concerns SF-268 CNS.
Assay [7] deals with HOP-92 NSCLC.
Assay [8] deals with SK-MEL-28 melanoma.
For assay [9], the system named is NCI-H226 lung.
Assay [10] concerns EKVX NSCLC.

Several values for one entry are separate records, joined by “and”; a condition that tells them apart may be missing. Equal values may be shown once.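 All cell lines were grown in 96-well plates and treated with compound for 48 hours. Here, GI50 denotes the concentration required for 50% inhibition of growth. TGI denotes the concentration required for complete inhibition of growth.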 Where a SMILES comes first, the peptide text is derived from it. The star is where a group is joined. Boc = CC(C)(C)OC(=O)*; OBn = c1ccc(CO*)cc1

Regarding `Cc1ccc(S(=O)(=O)NC(=O)NC(CCCCN=C(N)N)C(=O)O)cc1` (configuration not stated), the TGI in assay [1], in assay [2], in [3], in [4], in assay [5] and in assay [6] was over 100 µM in each case. Moreover, the TGI in assay [7] and in assay [8] was over 100 µM throughout.

With `O=C1CC(C(CC(=O)c2ccccc2)c2ccccc2)C(=O)c2ccccc2N1` (configuration not stated), the TGI was 77.8 µM in assay [9]; over 100 µM in assay [2]; over 100 µM in [3]; over 100 µM in assay [10]; over 100 µM in [4]; over 100 µM in assay [5]. The molecule further returned a TGI in [6] of over 100 µM.

For `O=S(=O)(O)c1cccc2cccc(N=Nc3c(O)ccc4ccccc34)c12`, the TGI in assay [9], in [1], in assay [2], in [3], in assay [10] and in assay [4] was over 100 µM throughout. In addition, the TGI in assay [5], in assay [6] and in assay [7] was over 100 µM in each case.

With `CC(=O)OC1C2CCC3C(C)(O)C4CC(O)C(C)(C)C4(O)C(O)CC13CC2(C)O` (configuration not stated), the TGI in assay [9], in [1], in assay [2], in [3], in [10] and in [4] was over 100 µM throughout. The TGI in [5], in assay [6] and in assay [7] was over 100 µM in each case.

For `CC(C)CC(NC(=O)OC(C)(C)C)C(=O)NC(CC(=O)OCc1ccccc1)C(=O)OCc1ccccc1` (stereo not drawn) (Boc-Leu-Asp(OBn)-OBn; configuration not given here), the TGI in assay [9], in assay [2], in [3], in assay [10], in assay [4] and in assay [5] was over 100 µM throughout. For the same molecule, the TGI in assay [6] and in assay [7] was over 100 µM each time.

On to `C=C1[C@@](C)([C@@H]2CCCS2)[C@H]2C(C)=C[C@]1(C)n1c(=O)n(-c3ccccc3)c(=O)n12`, for which the TGI in [9], in assay [1], in [2], in assay [3], in assay [10] and in assay [4] was over 100 µM in each case. The TGI in assay [5], in [6] and in assay [8] was over 100 µM in each case.

Take `Cc1ccc(-c2nnc(CCCCCCCCc3nnc(-c4ccc(C)cc4O)n3N)n2N)c(O)c1`: the TGI in assay [1], in assay [2], in assay [3], in assay [10], in assay [5] and in [6] was over 100 µM each time. Also, the TGI in assay [7] and in [8] was over 100 µM in each case.

`CC1(C)CC2(C)CC1CC2(O)c1ccccc1` (configuration not stated): the TGI in [9], in assay [1], in [2], in [3], in assay [4] and in assay [5] was over 100 µM each time. Further, the TGI in assay [6], in assay [7] and in assay [8] was over 100 µM in each case.

For `CN(C)c1ccc(/C=C/C(=O)N[C@@H]2C(=O)N3[C@@H]2SC(C)(C)[C@@H]3C(=O)O)cc1`, the TGI in assay [9], in assay [1], in assay [2], in [3], in assay [10] and in assay [4] was over 100 µM throughout. Also, the TGI in assay [5], in [6] and in assay [8] was over 100 µM throughout.

In the case of `COC(=O)c1c(CC(Cc2ccc3c(c2)CCCC3)C(=O)OC)ccc2c1CCCC2` (configuration not stated), the TGI in [1] is 45.1 µM; in assay [2] it was over 100 µM; in assay [3], over 100 µM; in assay [10], 77.1 µM; in assay [4], over 100 µM; in assay [5] it was over 100 µM. The TGI in [6], in assay [7] and in [8] was over 100 µM in each case.

As for `Cc1ccnc2nc(N)ccc12`, the TGI in assay [9], in assay [1], in assay [2], in assay [3], in assay [10] and in assay [5] was over 100 µM each time. Further, the TGI in [6] and in [8] was over 100 µM throughout.

Regarding `O=C(O)CC[P+](c1ccccc1)(c1ccccc1)c1ccccc1`, the TGI in assay [9], in assay [1], in [2], in assay [3], in assay [10] and in assay [4] was over 100 µM throughout. Besides, the TGI in assay [5], in assay [6] and in [8] was over 100 µM in each case.

Regarding `C=C[C@@]1(O)CCCC[C@@H]1CC(Sc1ccccc1)Sc1ccccc1`, the TGI amounted to 38.7 µM in assay [9]; 32.9 µM in assay [1]; 36.2 µM in assay [2]; 32.7 µM in assay [3]; 31.1 µM in assay [10]; 29.5 µM in [4]. In addition, the values for the TGI in assay [5], in assay [6] and in assay [8] were 33.6 µM, 29 µM and 86.8 µM, respectively.

Turning to `CC(=O)OC12c3ccccc3C(c3ccccc31)C1C(=O)N(c3ccccn3)C(=O)C12` (configuration not stated), the TGI in assay [9], in assay [1], in assay [2], in assay [3], in assay [10] and in [4] was over 100 µM in each case. The TGI in assay [5], in assay [6] and in [8] was over 100 µM throughout.

As for `Cc1nc2n(c1/C=C1/C(=O)Nc3ccccc31)CCS2`, the TGI in [1], in assay [2], in assay [3], in assay [10], in assay [4] and in assay [5] was over 100 µM throughout. Moreover, the TGI in assay [6], in assay [7] and in assay [8] was over 100 µM in each case.

For `N=C(N)SCCC(=O)CCSC(=N)N`, the TGI in [9], in assay [1], in assay [2], in assay [3], in [5] and in assay [6] was over 100 µM throughout. For the same molecule, the TGI in assay [7] and in assay [8] was over 100 µM each time.

In the case of `CCOC(=O)NNC(=O)NCc1ccccc1CNC(=O)NNC(=O)OCC`, the TGI in assay [9], in [1], in assay [2], in assay [3], in assay [10] and in assay [5] was over 100 µM throughout. Further, the TGI in assay [6] and in assay [8] was over 100 µM in each case.

With `Cn1c([C@H](C#N)C(=O)c2cc(O)ccc2[N+](=O)[O-])nc2ccccc21`, the TGI in assay [1], in [2], in assay [3], in assay [10], in [4] and in [5] was over 100 µM each time. In addition, the TGI in assay [6], in assay [7] and in assay [8] was over 100 µM in each case.

Turning to `Nc1ccc(Nc2cc(=O)[nH]c(=O)[nH]2)cc1`, the TGI in assay [9], in assay [1], in assay [2], in assay [3], in assay [10] and in [4] was over 100 µM in each case. In addition, the TGI in [5], in [6] and in assay [8] was over 100 µM throughout.

`COC(=O)C1=C(O)C(C(=O)OC)[C@]2(O)[C@@H](C(=O)OC)[C@H]1C[C@@H](c1ccccc1)[C@@H]2C(=O)OC` (some centres not stated): the TGI in [9] is 61.5 µM; in assay [3], 32.1 µM; in assay [10] it was 53.6 µM; in assay [4], 41.7 µM; in assay [5] it was 76.8 µM; in [6] it was 8.12 µM. The same molecule returned a TGI in assay [8] of 64.9 µM.

Take `CC1(C)C(CCO)CC1n1ccc(=O)[nH]c1=O` (configuration not stated): the TGI in [9], in assay [1], in assay [2], in assay [10], in assay [4] and in assay [5] was over 100 µM throughout. For the same molecule, the TGI in [6], in assay [7] and in assay [8] was over 100 µM in each case.

As to `Cc1c(OCc2ccccc2)c(=O)ccn1CCc1c[nH]c2ccccc12`, the TGI was over 100 µM in [2]; over 100 µM in assay [3]; over 100 µM in assay [10]; over 100 µM in [4]; over 100 µM in [5]; 64.1 µM in assay [6]. In addition, the TGI in assay [7] is 51.3 µM.

On to `COc1ccc(C2OCCN2C)cc1` (configuration not stated), for which the TGI in [9], in assay [1], in [2], in assay [3], in assay [10] and in assay [4] was over 100 µM each time. Besides, the TGI in assay [5], in assay [6] and in [7] was over 100 µM in each case.

Take `N#C/C(=C\c1ccc([N+](=O)[O-])s1)c1nc2cc(Cl)ccc2s1`: the GI50 in [9] was 0.69 µM; in [2], 3.12 µM; in [3] it was 0.773 µM; in assay [10], 1.63 µM; in [4], 1.83 µM; in assay [5] it was 2.45 µM. Besides, the values for the GI50 in assay [6] and in assay [7] were 2.51 µM and 0.287 µM, respectively. Further, the TGI in [9] was 2.36 µM; in assay [2], over 100 µM; in assay [3] it was 3.91 µM; in assay [10], 5.82 µM; in assay [4], 5.44 µM; in assay [5], 8.45 µM. The figures for the TGI in [6] and in assay [7] were over 100 µM and 1.6 µM, respectively.

Take `Cc1cccc2nc3c(=O)[nH]c(=O)nc-3n(C)c12`: the TGI in assay [9], in assay [1], in assay [2], in assay [3], in [10] and in [4] was over 100 µM in each case. Also, the TGI in assay [5], in [6] and in assay [8] was over 100 µM each time.

`Nc1nccc(NCC2(CO)CCC2)n1`: the TGI in assay [9], in assay [2], in assay [3], in [10], in [4] and in [5] was over 100 µM in each case. In addition, the TGI in assay [6], in assay [7] and in assay [8] was over 100 µM throughout.

Consider `O=C1CC(C(OCc2ccccc2)C(OCc2ccccc2)C(COCc2ccccc2)OCc2ccccc2)CC(=O)N1` (configuration not stated), for which the TGI in assay [9], in assay [1], in assay [2], in [3], in assay [10] and in assay [5] was over 100 µM each time. The TGI in assay [6], in assay [7] and in assay [8] was over 100 µM throughout. Moreover, the GI50 in assay [7] was 90.7 µM and 30.3 µM.

On to `O=Nn1c2ccccc2c2cc([N+](=O)[O-])ccc21`, for which the TGI in assay [1] worked out at 32.1 µM; in [2], 73.2 µM; in assay [3], 38.3 µM; in assay [10], 36.3 µM; in assay [4] it was 25.7 µM; in assay [5] it was 82.9 µM. In addition, the TGI came to 32.7 µM in [6], 29.8 µM in assay [7] and 39.3 µM in assay [8].

As for `COCC1OC(S(=O)(=O)c2ccccc2)C(O)C(OC)C1OC` (configuration not stated), the TGI in [9], in assay [1], in assay [2], in assay [3], in [10] and in [4] was over 100 µM in each case. The TGI in [5], in assay [6] and in assay [8] was over 100 µM throughout.

These data come from PubChem BioAssay (NCI).
